Data reported in patent publication US9884043B2, “RORgammaT inhibitors” (Merck Sharp & Dohme Corp., priority 2011, dated 2018).
pIC50: −log10 of the molar value.

Target: T1, HIS-tagged RORγ-LBD (Homo sapiens, UniProt P51449)
T1 construct: HIS-tagged RORγ-LBD was recombinantly expressed in SF9 cells using a baculovirus expression system; made in house; host or cells: SF9 cells, baculovirus; crude lysate used
T1 sequence (P51449 269-508 limits assumed): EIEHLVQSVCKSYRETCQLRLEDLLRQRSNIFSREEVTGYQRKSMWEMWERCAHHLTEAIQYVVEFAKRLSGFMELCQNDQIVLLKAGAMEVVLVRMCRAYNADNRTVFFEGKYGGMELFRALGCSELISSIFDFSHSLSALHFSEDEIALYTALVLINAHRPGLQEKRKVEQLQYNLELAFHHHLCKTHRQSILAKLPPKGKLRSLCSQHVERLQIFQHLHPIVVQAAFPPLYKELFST
Assay: TR-FRET assay (Protocol C), purified RORγ-LBD / biotinylated SRC1 LXXLL peptide
Format: biochemical
Details: purified RORγ-LBD 3 nM, SRC1 peptide 100 nM, overnight at 4° C.
Excerpt: Activation of RORgammaT activity can be measured using e.g. biochemical TR-FRET assay. In such an assay, interaction of cofactor-derived peptides with human RORgammaT-Ligand Binding Domain (LBD) can be measured. The TR-FRET technique is a sensitive biochemical proximity assay that will give information concerning the interaction of a ligand with the LBD, in the presence of cofactor derived peptides (Zhou et al., Methods 25:54-61, 2001).
To identify novel antagonists of RORgammaT, an assay was developed which employs the interaction of RORgammaT with its co-activator peptide SRC1_2. This peptide mimics the recruitment of co-activators to RORgammaT through its interaction with the LXXLL (SEQ ID NO:2) (eg NR box) motifs (Xie et al., J. Immunol. 175: 3800-09, 2005; Kurebayashi et al., Biochem. Biophys. Res. Commun. 315: 919-27, 2004; Jin et al., Mol. Endocrinology 24:923-29, 2010). The assay was run following three slightly different protocols, i.e. Protocol A, Protocol B, and Protocol C, which are described below.
TR-Fret Assay (Protocol C)
HIS-tagged RORγ-LBD protein was expressed in SF9 cells using a baculovirus expression system. The RORγ-LBD protein was purified by glutathione sepharose chromatography. Separately, SF9 cells not expressing any recombinant protein were lysed and the lysate was added to the purified RORγ-LBD at 0.25 μl lysate (from 10,000 SF9 cells)/nM purified protein. The mixture was then diluted in assay buffer (50 mM Tris pH 7.0, 50 mM KCl, 1 mM EDTA, 0.1 mM DTT) to obtain RORγ-LBD final concentration of 3 nM in 384-well assay plate.
Compounds to be tested were injected to the assay plate using Acoustic Droplet Ejection technology by Echo 550 liquid handler (Labcyte, Calif.). A stock of biotinylated-LXXLL (SEQ ID NO:2) peptide from coactivator SRC1 (Biotin-[…]) (SEQ ID NO: 1) was prepared in assay buffer and added to each well (100 nM final concentration). A solution of Europium tagged anti-HIS antibody (1.25 nM final concentration) and APC conjugated streptavidin (8 nM final concentration) were also added to each well.
The final assay mixture was incubated for overnight at 4° C., and the fluorescence signal was measured on an Envision plate reader: (Excitation filter=340 nm; APC emission=665 nm; Europium emission=615 nm; dichroic mirror=D400/D630; delay time=100 μs, integration time=200 μs). IC50 values for test compounds were calculated from the quotient of the fluorescence signal at 665 nm divided by the fluorescence signal at 615 nm.

| Compound | pIC50 |
| --- | --- |
| O=C(O)c1ccc(-c2nn(C(=O)c3c(Cl)cccc3C(F)(F)F)c3cc(C(=O)N4CC(F)C4)ccc23)cc1 [Example 25T, 4-(1-(2-chloro-6-(trifluoromethyl)benzoyl)-6-(3-fluoroazetidine-1-carbonyl)-1H-indazol-3-yl)benzoic acid] | > 7.30 |
| O=C(O)c1ccc(-c2nn(C(=O)c3c(Cl)cccc3C(F)(F)F)c3cc(C(=O)N4CC(F)(F)C4)ccc23)cc1 [Example 25U, 4-(1-(2-chloro-6-(trifluoromethyl)benzoyl)-6-(3,3-difluoroazetidine-1-carbonyl)-1H-indazol-3-yl)benzoic acid] | > 7.30 |
| O=C(O)c1ccc(-c2nn(C(=O)c3c(Cl)cccc3C(F)(F)F)c3cc(C(=O)N4CCCC4)ccc23)cc1 [Example 25V, 4-(1-(2-chloro-6-(trifluoromethyl)benzoyl)-6-(pyrrolidine-1-carbonyl)-1H-indazol-3-yl)benzoic acid] | > 7.30 |
| O=C(O)c1ccc(-c2nn(C(=O)c3c(Cl)cccc3C(F)(F)F)c3cc(C(=O)N4CCC4)ccc23)cc1 [Example 25W, 4-(6-(azetidine-1-carbonyl)-1-(2-chloro-6-(trifluoromethyl)benzoyl)-1H-indazol-3-yl)benzoic acid] | > 7.30 |
| O=C(O)c1cc(F)c(-c2nn(C(=O)c3c(Cl)cccc3C(F)(F)F)c3cccc(F)c23)cc1O [Example 26F, 4-(1-(2-chloro-6-(trifluoromethyl)benzoyl)-4-fluoro-1H-indazol-3-yl)-5-fluoro-2-hydroxybenzoic acid] | > 7.30 |
| O=C(O)c1c(F)cc(-c2nn(C(=O)c3c(Cl)cccc3C(F)(F)F)c3cccc(F)c23)c(F)c1O [Example 26G, 4-(1-(2-chloro-6-(trifluoromethyl)benzoyl)-4-fluoro-1H-indazol-3-yl)-3,6-difluoro-2-hydroxybenzoic acid] | > 7.30 |
